Reference: EP0934940A1, “CYTOKINE PRODUCTION INHIBITORS, TRIAZEPINE COMPOUNDS, AND INTERMEDIATES THEREOF” (Japan Tobacco Inc., priority 1996, dated 1997)
Where a name gives a salt, the structure may show the parent alone. Read-outs that look alike come from different tables or passages of the source.

Legend:
[1] = test system: IL-6; assay: Inhibitory activity on IL-6 production from LPS-stimulated human PBMC (ELISA); assay type: cell-based; details: 24 h
Protocol: (§1) Inhibitory activity on cytokine production from human PBMC (peripheral blood mononuclear cell)
(§2) PBMC fractions were isolated from human blood using a mono-poly resolving medium. The cells (PBMC) were cultured in 5% FCS (fetal calf serum)/RPMI1640 medium. Thereafter, the test compound was added to the final concentration of 0.001-10 µM, and LPS (lipopolysaccharide) was added to the final concentration of 10 µg/ml. After incubatioin for 24 hours, the supernatant was separated and freeze stocked at -80°C.
(§3) On the day of experiment, the supernatant was thawed and the production amount of cytokine was measured by ELISA. IL-6 was assayed using [(h)IL-6] human, ELISA system (Amersham); TNF-α was assayed using [(h)TNF-α] human, ELISA system (Amersham); GM-CSF was assayed using human GM-CSF immunoassay (R&D systems); and IL-8 was assayed using human IL-8 immunoassay (R&D systems). The determination method followed the method of each kit. The results are expressed in IC50.

[2] = test system: TNF-α; assay: Inhibitory activity on TNF-α production from LPS-stimulated human PBMC (ELISA); assay type: cell-based
Protocol: as §1, §2, §3

[3] = test system: IL-6; assay: Inhibitory activity on in vivo IL-6 production by LPS stimulation; details: male ICR mice, LPS stimulation i.v., test compound 10 mg/kg p.o. at the same time, blood two hours later, relative to 0.5% CMC-Na group; for inhibition in vivo at 10 mg/kg: Mus musculus, po, 2 h, read-out: Inhibtion (%) of plasma IL-6 production (10 mg/kg, p.o.)
Protocol: Inhibitory activity on in vivo IL-6 production by LPS stimulation
LFS (0.3 mg/kg) was intravenously administered to male ICR mice (6-week-old) fasted for 24 hours. At the same time, the test compound suspended in 0.5% CMC-Na ( carboxymethylcellulose sodium) was orally administered at the dose of 10 mg/kg.
Two hours later, blood was taken from eyegrounds. The blood was centrifuged, and the plasma fraction was diluted and quantitatively assayed for IL-6 in blood by ELISA (Endogen EM-IL6). The inhibitory percentage of the group administered with the test compound was expressed relative to the amount of IL-6 in blood of the cup administered with 0.5% CMC-Na.

[4] = test system: IL-8; assay: Inhibitory activity on IL-8 production from LPS-stimulated human PBMC (immunoassay); assay type: cell-based; details: 24 h, read-out: IL-8 IC50 (µM)
Protocol: as §1, §2, §3

[5] = test system: GM-CSF; assay: Inhibitory activity on GM-CSF production from LPS-stimulated human PBMC (immunoassay); assay type: cell-based; details: 24 h, read-out: GM-CSF IC50 (µM)
Protocol: as §1, §2, §3

[6] = test system: TNF-α; assay: Inhibitory activity on in vivo TNF-α production by LPS stimulation; details: male ICR mice, 30 mg/kg p.o. 30 minutes before LPS 0.3 mg/kg i.v., blood one hour after LPS, relative to 0.5% CMC-Na group
Protocol: Inhibitory activity on in vivo TNF-α production by LPS stimulation
The test compound suspended in 0.5% CMC-Na (carboxymethylcellulose sodium) was orally administered at the dose of 30 mg/kg to male ICR mice (6-week-old) fasted for 24 hours. At 30 minutes after oral administration, LPS was intravenously administered at the dose of 0.3 mg/kg. At one hour after LSP administration, blood was taken from the heart. The TNF-α in plasma was assayed by ELISA (Genzyme). The suppression of TNF-α production of the group administered with test compounds was calculated by the following formula. Inhibition (%) =[1-(test compound administered group)/(0.5% CMC-Na administered group)]× 100 [formula]

[7] = test system: IL-2; assay: Inhibitory activity on IL-2 production in concanavalin A-stimulated spleen cells; assay type: cell-based, Balb/c mice; details: Balb/c mouse spleen cells, 5 µg/ml concanavalin A, 24 hours, EIA
Protocol: (§4) Inhibitory activity on IL-2 and IFNγ production
(§5) The spleen cells obtained from 9-week-old Balb/c mice (Charles River Japan, Inc.) was suspended in RPMI-1640 medium supplemented with 10% FCS, at 4 × 10^6 cells/ml. The suspended cells were incubated in a 96 well plate (0.25 ml per well) in the presence of 5 µg/ml concanavalin A. The cells were cultured with or without addition of various concentrations of test compounds. After 24 hours' incubation, the culture broth was taken for assay of cytokine and preserved at -80°C. The concentrations of IL-2 and IFNγ in the culture broth were measured using an EIA kit (perSeptive Diagnostic) according to the attached protocol. The results are expressed in IC50.

[8] = test system: IFNγ; assay: Inhibitory activity on IFNγ production in concanavalin A-stimulated spleen cells; assay type: cell-based, Balb/c mice; details: Balb/c mouse spleen cells, 5 µg/ml concanavalin A, 24 hours, EIA
Protocol: as §4, §5

[9] = test system: Adjuvant arthritis (AIA); assay: Effects on rat adjuvant arthritis (hind limb edema); assay type: in vivo; details: Lewis rats, 10 mg/kg p.o. once a day for 28 days from day 0, hind limb edema at day 28, mean±standard error, **p < 0.01
Protocol: Effects on rat adjuvant arthritis
Lewis rats (5-week-old, Charles River Japan, Inc.) were used for the test. Adjuvant arthritis (AIA) was induced by injection (0.5 mg) of Mycobacterium butyricum (Difco) suspended in paraffin oil, from the root of the tail at day 0. The volume of the hind limb was measured with time after the injection of adjuvant. The test compound was suspended in 0.5% HPMC (hydroxypropylmethycellulose) and orally administered at the dose of 10 mg/kg once a day for 28 days from day 0. The suppression of edema of hind limb at day 28 was calculated as follows. Suppression (%) = 100 ×((AIA treated group-AIA control group))/((normal control group-AIA control group)) [formula]
The results are shown in mean±standard error and tested by Student-test. The result was significant when p value was less than 0.05.

[10] = human PBMC, LPS 10 µg/ml, incubation 24 hours, supernatant ELISA, read-out: IL-6 IC50
[11] = Homo sapiens, PBMC, 24 h, human PBMC, LPS 10 µg/ml, incubation 24 hours, supernatant ELISA, read-out: TNF-α IC50

Compound: Cc1nnc2n1-c1ccccc1C(c1ccc(N)cc1)=NN2Cc1ccc([N+](=O)[O-])cc1 [Synthetic Example 193, 4-[1-Methyl-4-(4-nitrobenzyl)-4H-2,3,4,5,10b-pentaazabenz[e]azulen-6-yl]phenylamine hydrochloride]
- IC50 [1, 10]: < 0.001 µM
- IC50 [2, 11]: 0.001 µM
- inhibition in vivo at 10 mg/kg [3]: 67%

Compound: Cc1cc2c(s1)-n1c(C)nnc1N(Cc1ccc(-c3nnnn3C)cc1)N=C2c1ccccc1 [Example 16]
- IC50 ([1]; read-out: IL-6 IC50 (µM), human PBMC, LPS 10 µg/ml, incubation 24 hours, supernatant ELISA): 0.3 µM
- IC50 ([2]; Homo sapiens, PBMC, 24 h, read-out: TNF-α IC50 (µM), human PBMC, LPS 10 µg/ml, incubation 24 hours, supernatant ELISA): 0.06 µM
- Inhibtion (%) of plasma IL-6 production (10 mg/kg, p.o.) [3]: 84%

Compound: Cc1nnc2n1-c1ccccc1C(c1ccc(N)cc1)=NN2Cc1ccc(Cl)cc1 [Synthetic Example 191, 4-[4-(4-Chlorobenzyl)-1-methyl-4H-2,3,4,5,10b-pentaazabenz[e]azulen-6-yl]phenylamine hydrochloride]
- IC50 [1, 10]: 0.001 µM
- IC50 [2, 11]: 0.001 µM
- inhibition in vivo at 10 mg/kg [3]: 62%

Compound: Cc1cc2c(s1)-n1c(C)nnc1N(Cc1ccc(C#N)cc1)N=C2c1ccccc1 [Synthetic Example 122, 6-(4-Cyanobenzyl)-2,9-dimethyl-4-phenyl-6H-5,6,7,8,9a-pentaazathieno[2,3-e]azulene]
- inhibition in vivo at 10 mg/kg [3]: 71%

Compound: Cc1ccc2c(c1)-n1c(C)nnc1N(Cc1ccc(C#N)cc1)N=C2c1ccc(Cl)cc1 [Synthetic Example 108, 6-(4-Chlorophenyl)-4-(4-cyanbenzyl)-1,9-dimethyl-4H-2,3,4,5,10b-pentaazabenz[e]azulene]
- Inhibtion (%) of plasma IL-6 production (10 mg/kg, p.o.) [3]: 70%

Compound: Cc1nnc2n1-c1ccccc1C(c1ccccc1)=NN2Cc1ccc(C#N)cc1 [Synthetic Example 111, 4-(4-Cyanobenzyl)-1-methyl-6-phenyl-4H-2,3,4,5,10b-pentaazabenz[e]azulene]
- inhibition in vivo at 10 mg/kg [3]: 62%

Compound: Cc1sc2c(c1C)C(c1ccc(Cl)cc1)=NN(Cc1ccc(C#N)cc1)c1nnc(C)n1-2 [Synthetic Example 115, 4-(4-Chlorophenyl)-6-(4-cyanobenzyl)-2,3,9-trimethyl-6H-5,6,7,8,9a-pentaazathieno[2,3-e]azulene]
- inhibition in vivo at 10 mg/kg [3]: 75%

Compound: Cc1nnc2n1-c1ccccc1C(c1ccc(Cl)cc1)=NN2Cc1ccc[n+]([O-])c1 [Example 1, 3-[6-(4-Chlorophenyl)-1-methyl-4H-2,3,4,5,10b-pentaazabenz[e]azulen-4-ylmethyl]pyridine-1-oxide]
- IC50 [2, 11]: 0.1 µM
- IC50 ([2]; human PBMC, LPS 10 µg/ml, incubation 24 hours, supernatant ELISA, read-out: TNF-α IC50): 0.13 µM
- inhibition in vivo at 10 mg/kg [3]: 73%

Compound: Cc1nnc2n1-c1ccccc1C(c1ccc(N)cc1)=NN2Cc1ccc(C#N)cc1 [Synthetic Example 192, 4-[4-(4-Cyanobenzyl)-1-methyl-4H-2,3,4,5,10b-pentaazabenz[e]azulen-6-yl]phenylamine hydrochloride]
- IC50 [1, 10]: 0.03 µM
- IC50 [2, 11]: 0.02 µM
- inhibition in vivo at 10 mg/kg [3]: 67%

Compound: Cc1nnc2n1-c1ccc([N+](=O)[O-])cc1C(c1ccccc1)=NN2Cc1ccncc1 [Synthetic Example 102, 1-Methyl-8-nitro-6-phenyl-4-(pyridin-4-ymethyl)-4H-2,3,4,5,10b-pentaazabenz[e]azulene]
- Inhibtion (%) of plasma IL-6 production (10 mg/kg, p.o.) [3]: 78%

Compound: Cc1nnc2n1-c1ccccc1C(c1ccc(Cl)cc1)=NN2Cc1cccnc1 [compound 19]
- IC50 [4]: 0.26 µM
- IC50 [5]: 0.05 µM
- Inhibition (%) of plasma TNF-α production (30 mg/kg, p.o.) [6]: 51%
- IC50 [7]: 240 nM
- IC50 [8]: 120 nM
- Suppression (%) of edema [9]: 72.7±3.3** %

Compound: Cc1ccc(CN2N=C(c3ccc(Cl)cc3)c3ccccc3-n3c(C)nnc32)cc1 [Synthetic Example 54, 6-(4-Chlorophenyl)-1-methyl-4-(4-methylbenzyl)-4H-2,3,4,5,10b-pentaazabenz[e]azulene]
- inhibition in vivo at 10 mg/kg [3]: 56%

Compound: Cc1sc2c(c1C)C(c1ccccc1)=NN(Cc1ccncc1)c1nnc(C)n1-2 [Synthetic Example 125, 2,3,9-Trimethyl-4-phenyl-6-(pyridin-4-ylmethyl)-6H-5,6,7,8,9a-pentaazathieno[2,3-e]azulene]
- inhibition in vivo at 10 mg/kg [3]: 84%
